IC50 data for 33 compounds are collected here from patent publication US20250025443A1, “COMPOUNDS AND METHODS FOR TREATING CORONA VIRUSES” (CLEAR CREEK BIO, INC., priority 2021, published 2025).

One assay addresses SARS-CoV-2 Papain-Like Protease (PLpro) (Severe acute respiratory syndrome coronavirus 2 (2019-nCoV) (SARS-CoV-2), UniProt P0DTD1). Put plainly: biochemical. Conditions: PLpro enzymatic fluorescence assay; class symbols; read-out: PLpro IC50.
`Cc1ccc(OC[C@@H]2CCN2C)cc1C(=O)NC1(c2cc(-c3ccnn3C)cc3ncccc23)CC1` [Compound 578, (S)-2-Methyl-N-(1-(7-(1-methyl-1H-pyrazol-5-yl)quinolin-5-yl)cyclopropyl)-5-((1-methylazetidin-2-yl)methoxy)benzamide]: the IC50 was below 100 nM.

`Cc1ccc(OC[C@@H]2CCN2C)cc1C(=O)NC1(c2cc(OC(F)(F)F)cc3ncccc23)CC1` [Compound 579, (S)-2-Methyl-5-((1-methylazetidin-2-yl)methoxy)-N-(1-(7-(trifluoromethoxy)quinolin-5-yl)cyclopropyl)benzamide]: the IC50 is below 100 nM.

For `Cc1ccc(OC[C@@H]2CCN2C)cc1C(=O)NC1(c2cc(-c3ccn(C)n3)cc3ncccc23)CC1` [Compound 582, (S)-2-Methyl-N-(1-(7-(1-methyl-1H-pyrazol-3-yl)quinolin-5-yl)cyclopropyl)-5-((1-methylazetidin-2-yl)methoxy)benzamide], the IC50 is below 100 nM.

For `Cc1ccc(OC[C@@H]2CCN2C)cc1C(=O)NC1(c2cc(-c3nccs3)cc3ncccc23)CC1` [Compound 590, (S)-2-Methyl-5-((1-methylazetidin-2-yl)methoxy)-N-(1-(7-(thiazol-2-yl)quinolin-5-yl)cyclopropyl)benzamide], the IC50 is below 100 nM.

On to `COCCOc1cc(C2(NC(=O)c3cc(OC[C@@H]4CCN4C)ccc3C)CC2)c2cccnc2c1` [Compound 591, (S)-N-(1-(7-(2-Methoxyethoxy)quinolin-5-yl)cyclopropyl)-2-methyl-5-((1-methylazetidin-2-yl)methoxy)benzamide], for which the IC50 was below 100 nM.

Turning to `Cc1ccc(OC[C@@H]2CCN2C)cc1C(=O)NC1(c2cc(Oc3ccccc3)cc3ncccc23)CC1` [Compound 592, (S)-2-Methyl-5-((1-methylazetidin-2-yl)methoxy)-N-(1-(7-phenoxyquinolin-5-yl)cyclopropyl)benzamide], the IC50 is below 100 nM.

In the case of `COc1cc(C(C)N2CCC(C(=O)NCc3cccc(F)c3)CC2)c2cccnc2c1` (stereo not drawn) [Compound 593, N-(3-Fluorobenzyl)-1-(1-(7-methoxyquinolin-5-yl)ethyl)piperidine-4-carboxamide], the IC50 was 1000 to 5000 nM.

As for `Cc1ccc(OC[C@@H]2CCN2C)cc1C(=O)NC1(c2cc(-c3ccccc3)cc3ncccc23)CC1` [Compound 594, (S)-2-Methyl-5-((1-methylazetidin-2-yl)methoxy)-N-(1-(7-phenylquinolin-5-yl)cyclopropyl)benzamide], the IC50 is below 100 nM.

For the compound `COc1cc(C2(NC(=O)c3cc(OC[C@@]45CCCN4C[C@H](F)C5)ccc3C)CC2)c2cccnc2c1` [Compound 596, 5-(((2R,7aS)-2-Fluorohexahydro-1H-pyrrolizin-7a-yl)methoxy)-N-(1-(7-methoxyquinolin-5-yl)cyclopropyl)-2-methylbenzamide], the IC50 was below 100 nM.

As to `CC(c1cc(-c2cccs2)cc2ccccc12)N1CCC(C(=O)NCc2cccc(F)c2)CC1` (stereo not drawn) [Compound 599, N-(3-Fluorobenzyl)-1-(1-(3-(thiophen-2-yl)naphthalen-1-yl)ethyl)piperidine-4-carboxamide], the IC50 was 1000 to 5000 nM.

On to `CC(C)=Cc1cc(C2(NC(=O)c3cc(OC[C@@H]4CCN4C)ccc3C)CC2)c2cccnc2c1` [Compound 603, (S)-2-Methyl-5-((1-methylazetidin-2-yl)methoxy)-N-(1-(7-(2-methylprop-1-en-1-yl)quinolin-5-yl)cyclopropyl)benzamide], for which the IC50 was below 100 nM.

`Cc1ccc(OC[C@@H]2CCN2)cc1C(=O)NC1(c2cc(-c3cccs3)cc3ncccc23)CC1` [Compound 608, (S)-5-(Azetidin-2-ylmethoxy)-2-methyl-N-(1-(7-(thiophen-2-yl)quinolin-5-yl)cyclopropyl)benzamide]: the IC50 was below 100 nM.

For the compound `Cc1ccc(OC[C@@H]2CCN2C)cc1C(=O)NC1(c2cc(C3=CCCC3)cc3ncccc23)CC1` [Compound 609, (S)-N-(1-(7-(Cyclopent-1-en-1-yl)quinolin-5-yl)cyclopropyl)-2-methyl-5-((1-methylazetidin-2-yl)methoxy)benzamide], the IC50 is below 100 nM.

For the compound `C=Cc1cc(C2(NC(=O)c3cc(OC[C@@H]4CCN4)ccc3C)CC2)c2cccnc2c1` [Compound 612, (S)-5-(Azetidin-2-ylmethoxy)-2-methyl-N-(1-(7-vinylquinolin-5-yl)cyclopropyl)benzamide], the IC50 is below 100 nM.

For the compound `C=C(C)c1cc(C2(NC(=O)c3cc(OC[C@@H]4CCN4)ccc3C)CC2)c2cccnc2c1` [Compound 613, (S)-5-(Azetidin-2-ylmethoxy)-2-methyl-N-(1-(7-(prop-1-en-2-yl)quinolin-5-yl)cyclopropyl)benzamide], the concentration for half-maximal inhibition (IC50) was below 100 nM.

For the compound `C=Cc1cc(C2(NC(=O)c3cc(OCCNC)ccc3C)CC2)c2cccnc2c1` [Compound 615, 2-Methyl-5-(2-(methylamino)ethoxy)-N-(1-(7-vinylquinolin-5-yl)cyclopropyl)benzamide], the IC50 was below 100 nM.

For `C=C(C)c1cc(C2(NC(=O)c3cc(OCCNC)ccc3C)CC2)c2cccnc2c1` [Compound 616, 2-Methyl-5-(2-(methylamino)ethoxy)-N-(1-(7-(prop-1-en-2-yl)quinolin-5-yl)cyclopropyl)benzamide], the IC50 is below 100 nM.

Turning to `COc1cc(C2(NC(=O)c3cc(OC[C@@H]4CCN4C)ccc3C)CC2)c2ccc(Cl)nc2c1` [Compound 617, (S)-N-(1-(2-Chloro-7-methoxyquinolin-5-yl)cyclopropyl)-2-methyl-5-((1-methylazetidin-2-yl)methoxy)benzamide], the IC50 is below 100 nM.

Regarding `Cc1ccc(OC[C@@H]2CCN2C)cc1C(=O)NC1(c2cc(-n3cccn3)cc3ncccc23)CC1` [Compound 619, (S)-N-(1-(7-(1H-Pyrazol-1-yl)quinolin-5-yl)cyclopropyl)-2-methyl-5-((1-methylazetidin-2-yl)methoxy)benzamide], the IC50 was below 100 nM.

On to `C#Cc1cc(C2(NC(=O)c3cc(OC[C@@H]4CCN4C)ccc3C)CC2)c2cccnc2c1` [Compound 620, (S)-N-(1-(7-Ethynylquinolin-5-yl)cyclopropyl)-2-methyl-5-((1-methylazetidin-2-yl)methoxy)benzamide], for which the 50% inhibitory concentration (IC50) was below 100 nM.

`Cc1ccc(OC[C@@H]2CCN2C)cc1C(=O)NC1(c2cc(-c3cc4ccccc4s3)cc3ncccc23)CC1` [Compound 621, (S)-N-(1-(7-(Benzo[b]thiophen-2-yl)quinolin-5-yl)cyclopropyl)-2-methyl-5-((1-methylazetidin-2-yl)methoxy)benzamide]: the IC50 is below 100 nM.

In the case of `Cc1ccc(OC[C@@H]2CCN2C)cc1C(=O)NC1(c2cc(-c3ccc(Cl)s3)cc3ncccc23)CC1` [Compound 623, (S)-N-(1-(7-(5-Chlorothiophen-2-yl)quinolin-5-yl)cyclopropyl)-2-methyl-5-((1-methylazetidin-2-yl)methoxy)benzamide], the IC50 is below 100 nM.

For `COc1cc(C2(NC(=O)c3cc(OC[C@@H]4CCN4C)ccc3C)CC2)c2ccc(C)nc2c1` [Compound 625, (S)-N-(1-(7-Methoxy-2-methylquinolin-5-yl)cyclopropyl)-2-methyl-5-((1-methylazetidin-2-yl)methoxy)benzamide], the IC50 is below 100 nM.

The same assay, now with this note: SARS-CoV-2 PLpro enzymatic fluorescence assay; read-out: PLpro IC50.
With `Cc1ccc(OCCN(C)C)cc1NC(=O)C1(c2cccc3ccccc23)CC1` [Compound 580, N-(5-(2-(Dimethylamino)ethoxy)-2-methylphenyl)-1-(naphthalen-1-yl)cyclopropane-1-carboxamide], the IC50 was above 5000 nM.

For the compound `Cc1cc(C2(NC(=O)c3cc(OC[C@@H]4CCN4C)ccc3C)CC2)c2cccnc2c1` [Compound 581, (S)-2-Methyl-5-((1-methylazetidin-2-yl)methoxy)-N-(1-(7-methylquinolin-5-yl)cyclopropyl)benzamide], the IC50 is below 100 nM.

With `COc1cc(C2(NC(=O)c3cc(Oc4ccncc4)ccc3C)CC2)c2cccnc2c1` [Compound 584, N-(1-(7-Methoxyquinolin-5-yl)cyclopropyl)-2-methyl-5-(pyridin-4-yloxy)benzamide], the IC50 is 100 to 1000 nM.

As to `Cc1ccc(OC[C@@H]2CCN2C)cc1C(=O)NC1(c2cc(Cl)nc3cc(F)ccc23)CC1` [Compound 586, (S)-N-(1-(2-Chloro-7-fluoroquinolin-4-yl)cyclopropyl)-2-methyl-5-((1-methylazetidin-2-yl)methoxy)benzamide], the concentration for half-maximal inhibition (IC50) was below 100 nM.

In the case of `Cc1ccc(OC[C@@H]2CCN2C)cc1C(=O)NC1(c2cc(OC(C)C)cc3ncccc23)CC1` [Compound 587, (S)-N-(1-(7-Isopropoxyquinolin-5-yl)cyclopropyl)-2-methyl-5-((1-methylazetidin-2-yl)methoxy)benzamide], the IC50 is below 100 nM.

Turning to `COc1cc(C2(NC(=O)c3cc(OC[C@@H]4CCN4C)c(N)cc3C)CC2)c2cccnc2c1` [Compound 597, (S)-4-Amino-N-(1-(7-methoxyquinolin-5-yl)cyclopropyl)-2-methyl-5-((1-methylazetidin-2-yl)methoxy)benzamide], the IC50 is below 100 nM.

Take `Cc1ccc(OC[C@@H]2CCN2C)cc1C(=O)NC1(c2cc(OCc3ccccc3)cc3ncccc23)CC1` [Compound 598, (S)-N-(1-(7-(Benzyloxy)quinolin-5-yl)cyclopropyl)-2-methyl-5-((1-methylazetidin-2-yl)methoxy)benzamide]: the IC50 is below 100 nM.

Turning to `Cc1ccc(OC[C@@H]2CCN2C)cc1C(=O)NC1(c2cc(C(F)(F)F)cc3ncccc23)CC1` [Compound 600, (S)-2-Methyl-5-((1-methylazetidin-2-yl)methoxy)-N-(1-(7-(trifluoromethyl)quinolin-5-yl)cyclopropyl)benzamide], the IC50 was below 100 nM.

For the compound `Cc1ccc(OC[C@@H]2CCN2C)cc1C(=O)NC1(c2cc(N(C)C)nc3cc(F)ccc23)CC1` [Compound 611, (S)-N-(1-(2-(Dimethylamino)-7-fluoroquinolin-4-yl)cyclopropyl)-2-methyl-5-((1-methylazetidin-2-yl)methoxy)benzamide], the IC50 was below 100 nM.

On to `Cc1ccc(OC[C@@H]2CCN2C)cc1C(=O)NC1(c2cc(Cl)cc3ncccc23)CC1` [Compound 624, (S)-N-(1-(7-Chloroquinolin-5-yl)cyclopropyl)-2-methyl-5-((1-methylazetidin-2-yl)methoxy)benzamide], for which the IC50 was below 100 nM.
